Measured values taken from US20120195837A1, “TIN(II)-2-HYDROXYCARBOXYLATES” (HONEYWELL INTERNATIONAL INC., priority 2011, published 2012).

Assays:
[1] = Physical properties of the solid (hygroscopicity, flow); format: physicochemical; settings: versus stannous chloride dihydrate
From the text: Thus, tin(II) lactate is observed to be a non-hygroscopic, and therefore an easily handlable free-flowing powder. In addition, tin(II) lactate is observed to be non-corrosive.
In addition, tin(II) lactate is observed to be non-corrosive toward standard industrial equipment.

[2] = Oral care application of formulated dentifrice or oral wash; format: in vivo; settings: formulated as oral dentifrice or oral wash
From the text: A sample of tin(II) L-lactate (Example 2) is formulated as an oral dentifrice or oral wash, using additives and methods as known in the art.

Row | Structure (SMILES) | hygroscopicity / powder behaviour [1] | retention of Sn(II) ion on oral surfaces ([2]; applied for about 5 to about 10 minutes) | plaque formation and/or dental caries ([2]; compared with a control group which lacks the Sn(II) application)
1 | CC(O)C(=O)[O-].CC(O)C(=O)[O-].[Sn+2] (stereo not drawn) [tin(II) lactate, Tin(II) Lactate] | non-hygroscopic, free-flowing powder |  | 
2 | C[C@H](O)C(=O)[O-].C[C@H](O)C(=O)[O-].[Sn+2] [tin(II) L-lactate, Tin(II) L-lactate] |  | successfully results in retention of Sn(II) ion on oral surfaces | reduces plaque formation and/or dental caries
